Results published in PubChem BioAssay AID463229 (Broad Institute, 2010).
Active and inactive are the calls of the source.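 How the source made its calls: active means compounds raising the signal whose fitted half-maximal concentration is at or below their top tested dose (cut at about 25 µM in these data); inconclusive means flat fit at 30 to 70% activity, or a poor fit; inactive means the rest.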

System: INS-1E rat beta cells, no cytokines, CellTiter-Glo ATP, 48 h
Test: ATP level change in INS-1E without cytokines, dose response, counter-screen for beta-cell apoptosis protection project, INS-1E rat cells, ATP luminescence, cherry pick (AID 463229)

SMILES	AC50
CCCCCCCCCCOC(=O)Cn1c(COc2ccccc2)[n+](C)c2ccccc21	4.25 µM
Cc1cc(C(=O)CSc2nc3ccccc3c(=O)n2C)c(C)n1Cc1ccc2c(c1)OCO2	2.07 µM
COc1cccc(/C=N/NC(=O)c2[nH]nc3c2CCc2ccccc2-3)c1O	4.25 µM
CCOc1ccc(-n2c(O)c(/C=N/Nc3nc(C)cc(C)n3)c3ccccc3c2=O)cc1	6.38 µM
Cc1cc2nc(NCCCO)n(CC(=O)c3cc(C(C)(C)C)c(O)c(C(C)(C)C)c3)c2cc1C	8.83 µM
O=S(=O)(NCC1CCCO1)c1ccc(-c2ccc(S(=O)(=O)NCC3CCCO3)cc2)cc1 (stereo not drawn)	4.95 µM
COC(=O)C1=C(C)N(Cc2ccccc2)C(=NCc2ccccc2)N[C@H]1c1cccc(C(F)(F)F)c1	14.1 µM
CCC(C)(C)c1ccc(OCCCC[n+]2ccccc2)c(C(C)(C)CC)c1	2.27 µM
CCCC(=O)NC(c1ccc(N(C)C)cc1)c1ccc2cccnc2c1O (stereo not drawn)	2.08 µM
O=C(Nc1cccc([N+](=O)[O-])c1)c1cc2ccccc2cc1O	4.38 µM
c1ccc(-c2nnc(-c3ccccn3)nc2NC2CCCCC2)cc1	3.52 µM
O=C(N/N=C/c1cc([N+](=O)[O-])ccc1O)c1cccc2cc[nH]c12	6.89 µM
Cc1ccc(C(=O)NC2CCCc3c2cnn3-c2ccc(F)cc2F)cn1 (stereo not drawn)	7.07 µM
Cc1cc(C)nc(SCc2ccc(C(=O)N/N=C/c3cccc(O)c3O)cc2)n1	8.06 µM
COc1ccc(CC(=O)Nc2nc(-c3ccc(F)c(F)c3)cs2)cc1OC	7.2 µM
C/C(=N\NC(=O)COc1ccccc1-c1ccccc1)c1ccc(O)cc1O	10.5 µM
Cc1cc(O)c2c(c1)C(=O)C13C(=C2O)C(=O)[C@H]2[C@@H](O)[C@@H]1[C@H]1[C@H](O)[C@@H]3C(=O)C3=C(O)c4c(O)cc(C)cc4C(=O)C312 (stereo partly drawn)	4.68 µM
COc1cc(CN2CCN(c3cc(C)ccc3C)CC2)ccc1O	7.21 µM
CCn1c(C)nc2cc(-c3nnc(-c4c(-c5ccccc5)noc4C)o3)ccc21	5.18 µM
C/C(=N\NC(=O)c1cc(-c2cccnc2)nc2ccccc12)c1ccc(O)cc1O	2.45 µM
O=[N+]([O-])c1cc(Cl)cc(/C=N\Nc2ccccn2)c1O	2.55 µM
Cc1ccc(-c2csc(NC(=O)c3c(C)noc3C)n2)s1	4.85 µM
Cc1csc2c(N3CCN(C(=O)c4ccc(C(C)(C)C)cc4)CC3)ncnc12	14.9 µM
NC(N)=N/N=C/c1cn(-c2ccccc2)nc1-c1cccs1	14.2 µM
CCn1c(-c2ccc(C)cc2)nn(CC(=O)NCCc2ccccc2)c1=S	7.22 µM
CN(C)S(=O)(=O)c1ccc(Oc2ccc(S(=O)(=O)N(C)C)cc2)cc1	9.29 µM
O=C(NCc1cccnc1)c1cc(-c2ccco2)on1	2.27 µM

SMILES	AC50
C/C(=N\NC(=O)C(=O)Nc1cccc(Cl)c1)c1ccncc1	6.53 µM
CC(C)CC[n+]1ccn(C2=C([O-])c3ccccc3C(=O)/C2=N\S(=O)(=O)c2ccccc2)c1	22.9 µM
O=C(COc1ccccc1-c1ccccc1)N/N=C/c1ccc2ccccc2c1	8.67 µM
CCn1c(-c2ccccc2)c(C(=O)CCl)c2ccccc21	11.6 µM
COc1ccc(C(=O)Nc2ccccc2C(=O)N/N=C/c2ccccn2)cc1OC	8.14 µM
CCCCNc1c(-c2ccc(-c3cccc(Cl)c3)cc2)nc2ccccn12	5.83 µM
O=C(c1ccco1)N1N=C(c2ccc(Br)cc2)CC1c1ccco1 (stereo not drawn)	24.2 µM
N#CC(C#N)=C1C=CC=CN1/C(=C\c1ccco1)C(=O)c1ccc(Br)cc1	8.57 µM
CC(C)CNC(=O)COC(=O)c1c2c(nc3ccccc13)/C(=C/c1cccs1)CC2	1.5 µM
Cc1ccc2nc(/C(C#N)=C\c3ccc([N+](=O)[O-])o3)[nH]c2c1	2.96 µM
C(#Cc1ccccc1)C[N+]1(CC#Cc2cccc3ccccc23)CCCC1	8.17 µM
COc1cc(/C=C/C(=O)c2ccc([N+](=O)[O-])o2)ccc1O	3.91 µM
Oc1[nH]c(N=C2N=c3ccccc3=N2)c2ccccc12	3.44 µM
Cc1ccc(Sc2cc(C)nc(-c3ccccn3)n2)cc1	> 26 µM (inactive)
O=C(COc1ccc([N+](=O)[O-])cc1)Nc1ccc(C(=O)NCc2cccnc2)cc1	0.369 µM
COc1ccc(C2C(O)C(c3c[nH]c4ccccc34)=NN2C(=O)CCl)cc1 (stereo not drawn)	2.9 µM
CC1=NNC(=O)/C1=C\c1cn(-c2ccccc2)nc1-c1cccs1	7.54 µM
CN1/C(=C\C(=S)NC(=O)c2cccc(Br)c2)C(C)(C)c2ccccc21	3.93 µM
O=C(Nc1cc(S(=O)(=O)Nc2ccc(Cl)cc2)ccc1N1CCCCC1)c1ccc(F)cc1	7.6 µM
Cc1nc(C(=O)NNC(=O)c2c(-c3c(Cl)cccc3Cl)noc2C)cs1	19.9 µM
COc1ccc(CNCCC(c2ccc(OC(C)C)cc2)C(C)C)cc1OC (stereo not drawn)	15 µM
Cc1cc(N)c2cc(NC(=O)/C=C/c3ccccc3Cl)ccc2n1	14.2 µM
c1ccc2c(c1)ncn2CCCOc1ccc2c(c1)CCC2	7.74 µM
COc1ccc(C(=O)c2c(C(F)(F)F)oc3c2C(=O)c2ccccc2C3=O)cc1	6.74 µM
CCOC(=O)c1sc(NC(=O)Nc2cccc(Cl)c2)cc1C	7.53 µM
CCN(CC)CCN1c2ccccc2Sc2ccc3ccccc3c21	18.1 µM
